The numbers were not newly measured in patent US20030104981A1 (priority 1995, published 2003), which cites them from elsewhere.

The test system of one series is LB lymphoma cell. The following applies: cited from earlier work.
The subject of the next series is LB and IM-9. The settings on record: cited from earlier work.
The conditions of series [1]: poster presentation, 1992; cited from earlier work.
For series [2] the following is noted: assumed; cited from earlier work.
Another series deals with IDE (Homo sapiens, UniProt P14735). The settings on record: cited from earlier work.

Regarding “A8 His B10 Glu B27 His (code name H2) insulin [Radoyka H2]”, in the series with LB lymphoma cell, the “mitogenic potency (literature)” value is listed as “most potent mitogen”. For the same substance, the “binding to LB and IM-9” value with LB and IM-9 is listed as “bound essentially irreversibly”.
As to “B10 Asp insulin: B10 His replaced by Asp in native insulin”, the mitogenic effect entry in series [1] is recorded as “significantly increased mitogenic effect”.
Take “des-(B26-B30)-[Glu-B^10; Tyr-B^25—NH2] insulin analogue”: the “activity, times more active than native insulin” value in series [2] is reported as “at least 20 times”.
As to “rat insulin analogue at B16 Tyr→Asp replacement: engineered rat insulin analogue at B16 Tyr→Asp replacement (group in Geneva)”, in the series with IDE, the “susceptibility to cleavage by IDE” value was “unchanged susceptibility to cleavage by IDE”.
